Key:
Assay type in all cases: cell-based, human
DU145 cells [1] = test: MTT assay (cell growth / viability); conditions: 0-1.92 μg/ml, 5 days
Method: (§1) DU145 (1×10^3/well), PC-3 (1×10^3/well) and LNCaP-FGC (1.5×10^3/well) cells were seeded in 96-well plates 24 hours prior to serum starvation. Cells were starved of serum for 24 hours and then incubated in the serum-free medium with or without 12.5 μg/ml leptin for 5 days. 3-(4,5-dimethylthiazol-2-yl)-2,5-diphenyl tetrazolium bromide (MTT) was added to each well to a concentration of 0.5 mg/ml. After 3-hour incubation at 37° C., cells were lysed in 50% dimethylformamide and 20% SDS at 37° C. Optical densities (O.D.) at 550 nm and 670 nm were measured by a plate reader, and differential O.D. between 550 nm and 670 nm (O.D. 550 nm minus O.D. 670 nm) were determined. Each experiment was performed in quadruplicate, and the values are reported as mean±SD.
(§2) DU145 (0.5-1.0×10^3/well), PC-3 (0.5-1.0×10^3/well), and LNCaP FGC (0.75-1.5×10^3/well) cells were seeded in 96-well plates 24 hours prior to serum starvation. Cells were starved of serum for 24 hours and then incubated in the serum-free medium with or without cytokine(s), DHT and/or doxorubicin at indicated concentrations for 5 days. MTT was added to each well to a concentration of 0.5 mg/ml. After being incubated at 37° C. for 3 hours, cells were lysed in 50% dimethylformamide and 20% SDS at 37° C. Optical densities (OD) at 550 and 670 nm were measured by a plate reader, and differential OD between 550 and 670 nm (OD 550 minus OD 670 nm) were determined. Each experiment was performed in quadruplicate, and the values were reported as mean±S.D.
Sucrose gradients were set up in 2.2-ml centrifuge tubes (Beckman Coulter, Inc., Fullerton, Calif.) by layering 5, 10, 15 and 20% (w/v) sucrose in velocity sedimentation buffer (10 mM HEPES, pH 8; 125 mM NaCl). Gradients were then equilibrated overnight at 4° C. Twenty micrograms of f-adiponectin in 200 μl of velocity sedimentation buffer containing 5 μl of HMW-Native protein marker kit (GE Healthcare, Piscataway, N.J.) set to 0.5 μg/μl albumin was overlayed onto the sucrose gradients and spun in a Beckman TLS-55 rotor at 55,000 rpm for 5 hours at 4° C. Fractions (150 μl each) were sequentially collected from the top to the bottom; aliquots were removed and used immediately in the MTT assay. The remaining material was stored at −80° C. for Western blot analysis with anti-adiponectin antibody and SDS-PAGE with silver staining. For the MTT assay, DU145 cells (0.5×1 03/well) were serum-starved and incubated in triplicate in 60 μl of the serum-free medium plus 30 μl of each fraction. For Western blot analysis, 0.5 μl of each fraction was electrophoresed on a 10% SDS-polyacrylamide gel and electrotransferred to a polyvinylidene difluoride membrane. The membrane was washed, blocked, and hybridized with the anti-adiponectin antibody. Bands were visualized using a Lumiglo reagent (Cell Signaling Technology, Inc., Beverly, Mass.). For SDS-PAGE, 20 μl of each fraction was electrophoresed on a 10% SDS-polyacrylamide gel, followed by silver staining using the Silver Stain kit (Bio-Rad Laboratories, Inc., Hercules, Calif.) to visualize molecular weight markers.

LNCaP-FGC cells [2] = test: MTT assay (cell growth / viability); conditions: 0-1.92 μg/ml, 5 days
Method: as §1, §2

PC-3 cells [3] = test: MTT assay (cell growth / viability); conditions: 0-1.92 μg/ml, 5 days
Method: as §1, §2

DU145 cells [4] = test: [3H] thymidine incorporation assay; conditions: DU145, serum-deprived; leptin up to 12.5 μg/ml, IL-6 100 ng/ml or IGF-I 100 ng/ml; 20 hours
Method: (§3) DU145 (1.5×10^5/well), PC-3 (1.0×10^5/well) and LNCaP-FGC (2.0×10^5/well) cells were seeded into 24-well plates 24 hours before serum-starvation. Cells were deprived of serum for 48 hours, followed by incubation with leptin at indicated concentrations or 100 ng/ml IL-6 for 20 hours. In some experiments, cells were pretreated with SP600125 prior to cytokine stimulation as described below. Cells in each well were pulsed with 1 μCi of [^3H] thymidine (Amersham Pharmacia Biotech Inc., Piscataway, N.J., USA) during the final 5 hours, washed once with PBS, fixed with cold 5% trichloroacetic acid, solubilized with 0.25 M NaOH, and counted in scintillant. Each experiment was performed in quadruplicate, and the values are reported as mean±SD.
(§4) SP600125 was dissolved in DMSO to make a stock solution. Eighty-percent confluent prostate cancer cells were serum-starved for 24 hours and pretreated with SP600125 at indicated concentrations for 30 minutes, followed by leptin treatment (12.5 μg/ml): 15 minutes for Western blot analysis or 20 hours for thymidine incorporation assays. DMSO-treated cells were employed as controls.

PC-3 cells [5] = test: [3H] thymidine incorporation assay; conditions: PC-3, serum-deprived; leptin up to 12.5 μg/ml, IL-6 100 ng/ml or IGF-I 100 ng/ml; 20 hours
Method: as §3, §4

LNCaP-FGC cells [6] = test: [3H] thymidine incorporation assay; conditions: serum-deprived, leptin up to 12.5 μg/ml, IL-6 100 ng/ml or IGF-I 100 ng/ml, 20 hours
Method: as §3

Compound: COc1cccc2c1C(=O)c1c(O)c3c(c(O)c1C2=O)C[C@@](O)(C(=O)CO)C[C@@H]3O[C@H]1C[C@H](N)[C@H](O)[C@H](C)O1 [doxorubicin, reference compound]
- cell growth (MTT), doxorubicin alone (DU145 cells [1]): suppressed cell growth in a dose-dependent manner
- cell growth (MTT), doxorubicin alone (LNCaP-FGC cells [2]): suppressed cell growth in a dose-dependent manner
- cell growth (MTT), doxorubicin alone (PC-3 cells [3]): suppressed cell growth in a dose-dependent manner

Compound: IGF-I: Recombinant human IGF-I from R&D Systems; adipose cytokine
- [3H] thymidine incorporation (cell proliferation), cytokine alone (DU145 cells [4]): augmented cell proliferation
- [3H] thymidine incorporation (cell proliferation), cytokine alone (PC-3 cells [5]): augmented cell proliferation
- [3H] thymidine incorporation (cell proliferation), cytokine alone (LNCaP-FGC cells [6]): did not affect

Compound: IL-6: Recombinant human IL-6 purchased from R&D Systems; adipose cytokine
- [3H] thymidine incorporation (cell proliferation), cytokine alone (DU145 cells [4]): stimulated cell proliferation
- [3H] thymidine incorporation (cell proliferation), cytokine alone (PC-3 cells [5]): stimulated cell proliferation
- [3H] thymidine incorporation (cell proliferation), cytokine alone (LNCaP-FGC cells [6]): inhibited
